One assay addresses IDH1R132C (Homo sapiens (Human), UniProt O75874, R132C). As to the kind of experiment: Inhibitory activity against IDH1R132C enzyme (NADPH detection, WST-8). The format is biochemical. Conditions: 10 nM, residual NADPH detected with WST-8, read-out: Test Example 1 IDH1 R132C IC50. Background: Tetrazolium dyes change colour on reduction, which living cells bring about.
Assay [1] deals with HT-1080 cells expressing IDH1R132C. Nature of the assay: 2-HG production inhibitory activity using HT1080 cell. The format is cell-based, human. Conditions: Homo sapiens. On the procedure:
Then, 100 μL of growth medium B was added to each well, further 25 μL of a solution of each compound diluted to a predetermined concentration with growth medium B was added to each well, and the cells were incubated at 37° C. for 2 days under 5% CO2. […] Then, 150 μL of ultrapure water was further added to each well, and the mixture was stirred by pipetting and stored at −20° C.
The preserved solutions were thawed at room temperature.

For assay [2], the system named is HT1080 xenografted mice (IDH1R132C). As to the kind of experiment: 2-HG production inhibitory activity using HT1080 xenografted mice. Format: in vivo, mouse. Particulars: Mus musculus, HT-1080, po, 6 h, read-out: Test Example 5 Ratio (%). The method, boiled down: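 Mice bearing HT1080 tumors received 75 mg/kg compound by oral gavage twice a day, three doses in total, at 10 mL/kg; vehicle-dosed mice were negative controls. Tumors were collected 6 h after the final dose, frozen, homogenized in methanol and centrifuged, and 2-HG was measured in the extracts.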

[3] abbreviates: HT-1080, 2-HG production, HT1080 cells, read-out: Test Example 3 IC50.
The mark [4] stands for this setting: 2-HG production, HT1080 xenografted mice.

Each structure is given as a SMILES string. Read-outs that look alike come from different tables or passages of the source.

Chain of IDH1R132C (O75874 whole entry R132C): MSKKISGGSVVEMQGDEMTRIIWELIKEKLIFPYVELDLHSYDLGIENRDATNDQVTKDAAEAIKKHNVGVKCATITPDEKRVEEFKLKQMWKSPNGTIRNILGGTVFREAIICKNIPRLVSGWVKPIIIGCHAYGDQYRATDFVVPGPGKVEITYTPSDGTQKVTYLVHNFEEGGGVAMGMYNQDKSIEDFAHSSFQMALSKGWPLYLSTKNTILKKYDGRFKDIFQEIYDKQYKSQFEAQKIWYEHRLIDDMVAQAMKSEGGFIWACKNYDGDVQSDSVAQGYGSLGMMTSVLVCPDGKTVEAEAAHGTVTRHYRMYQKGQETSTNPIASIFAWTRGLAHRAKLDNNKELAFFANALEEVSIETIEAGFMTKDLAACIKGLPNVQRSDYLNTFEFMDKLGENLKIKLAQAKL

For orientation: IC50 means the point on the concentration scale where inhibition reaches its midpoint. Turning to `C=CC(=O)N1CCN(c2onc(-c3c(Cl)cccc3Cl)c2C(=O)n2ccc3c(/C=C/C(=O)O)cccc32)[C@H](C2CC2)C1` [Example 154, (2E)-3-[1-({5-[(2R)-4-Acryloyl-2-cyclopropylpiperazin-1-yl]-3-(2,6-dichlorophenyl)-1,2-oxazol-4-yl}carbonyl)-1H-indol-4-yl]prop-2-enoic acid], the IC50 is 235 nM on IDH1R132C and 294 nM in assay [1] (setting [3]). Moreover, in assay [2] (setting [4]), the response vs control in vivo at 75 mg/kg was 45%.

On to `C=CC(=O)N1CCC(c2onc(-c3c(Cl)cc(Cl)cc3Cl)c2C(=O)n2ncc3c(/C=C/C(=O)O)cccc32)CC1` [Example 118], for which the figures for the IC50 (at IDH1R132C; in assay [1] (setting [3])) were 625 nM and 97 nM, respectively. In addition, in assay [2] (setting [4]), the response vs control in vivo at 75 mg/kg worked out at 87%.

As to `Cc1cn(C(=O)c2c(-c3c(Cl)cc(Cl)cc3Cl)noc2C2(N(C)C)CCC2)c2cccc(/C=C/C(=O)O)c12` [Example 81, (2E)-3-(1-{[5-[1-(Dimethylamino)cyclobutyl]-3-(2,4,6-trichlorophenyl)-1,2-oxazol-4-yl]carbonyl}-3-methyl-1H-indol-4-yl)prop-2-enoic acid], the half-inhibitory concentration (IC50) at IDH1R132C stood at 163 nM; in assay [1] (setting [3]) it was 31 nM. Further, the response vs control in vivo at 75 mg/kg in assay [2] (setting [4]) amounted to 15%.

In the case of `COC1(c2onc(-c3c(Cl)cc(Cl)cc3Cl)c2C(=O)n2ccc3c(/C=C/C(=O)O)cccc32)CCC1` [Example 74, (2E)-3-(1-{[5-(1-Methoxycyclobutyl)-3-(2,4,6-trichlorophenyl)-1,2-oxazol-4-yl]carbonyl}-1H-indol-4-yl)prop-2-enoic acid], the 50% inhibitory concentration (IC50) on IDH1R132C is 175 nM; in assay [1] (setting [3]), 118 nM. For the same molecule, in assay [2] (setting [4]), the response vs control in vivo at 75 mg/kg was determined as 20%.

Turning to `CC(C)(F)c1onc(-c2c(Cl)cc(Cl)cc2Cl)c1C(=O)n1cc2c3c(c(F)ccc31)/C(=C/C(=O)O)CC2` [Example 67, (2E)-[6-Fluoro-1-{[5-(2-fluoropropan-2-yl)-3-(2,4,6-trichlorophenyl)-1,2-oxazol-4-yl]carbonyl}-3,4-dihydrobenzo[cd]indol-5(1H)-ylidene]ethanoic acid], the figures for the IC50 (on IDH1R132C; in assay [1] (setting [3])) were 154 nM and 95 nM, respectively. Besides, the response vs control in vivo at 75 mg/kg in assay [2] (setting [4]) is 27%.

Regarding `C=CC(=O)N1CC(c2onc(-c3c(Cl)cc(Cl)cc3Cl)c2C(=O)n2ccc3c(/C=C/C(=O)O)cccc32)C1` [Example 95], the results for the IC50 (on IDH1R132C; in assay [1] (setting [3])) were 67 nM and 89 nM, respectively. For the same molecule, the response vs control in vivo at 75 mg/kg in assay [2] (setting [4]) turned out to be 44%.

For the molecule `C=CS(=O)(=O)N1CCC(c2onc(-c3c(Cl)cc(Cl)cc3Cl)c2C(=O)n2ccc3c(/C=C/C(=O)O)cccc32)CC1` [Example 103], the figures for the 50% inhibitory concentration (IC50) (at IDH1R132C; in assay [1] (setting [3])) were 114 nM and 506 nM, respectively. In addition, the response vs control in vivo at 75 mg/kg in assay [2] (setting [4]) amounted to 90%.

As to `C=CC(=O)N1CCC(COC)(c2onc(-c3c(Cl)cc(Cl)cc3Cl)c2C(=O)n2ccc3c(/C=C/C(=O)O)cccc32)CC1` [Example 120], the 50% inhibitory concentration (IC50) came to 357 nM on IDH1R132C and 51 nM in assay [1] (setting [3]). Further, the response vs control in vivo at 75 mg/kg in assay [2] (setting [4]) was 31%.

For `C=CS(=O)(=O)N1CCN(c2onc(-c3c(Cl)cccc3Cl)c2C(=O)n2ccc3c(/C=C/C(=O)O)cccc32)CC1` [Example 149, (2E)-3-[1-({3-(2,6-Dichlorophenyl)-5-[4-(ethenylsulfonyl)piperazin-1-yl]-1,2-oxazol-4-yl}carbonyl)-1H-indol-4-yl]prop-2-enoic acid], the concentration for half-maximal inhibition (IC50) on IDH1R132C stood at 132 nM; in assay [1] (setting [3]), 278 nM. Moreover, in assay [2] (setting [4]), the response vs control in vivo at 75 mg/kg turned out to be 96%.

Consider `Cc1cn(C(=O)c2c(-c3c(Cl)cc(Br)cc3Cl)noc2C(C)(C)F)c2cccc(/C=C/C(=O)O)c12` [Example 68, (2E)-3-(1-{[3-(4-Bromo-2,6-dichlorophenyl)-5-(2-fluoropropan-2-yl)-1,2-oxazol-4-yl]carbonyl}-3-methyl-1H-indol-4-yl)prop-2-enoic acid], for which the figures for the IC50 (on IDH1R132C; in assay [1] (setting [3])) were 125 nM and 32 nM, respectively. In addition, the response vs control in vivo at 75 mg/kg in assay [2] (setting [4]) came to 47%.

Turning to `C=CC(=O)N1C[C@@H](C)N(c2onc(-c3c(Cl)cccc3Cl)c2C(=O)n2ccc3c(/C=C/C(=O)O)cccc32)[C@@H](C)C1` [Example 144, (2E)-3-(1-{[5-(4-Acryloyl-cis-2,6-dimethylpiperazin-1-yl)-3-(2,6-dichlorophenyl)-1,2-oxazol-4-yl]carbonyl}-1H-indol-4-yl)prop-2-enoic acid], the IC50 on IDH1R132C is 151 nM; in assay [1] (setting [3]), 107 nM. Also, the response vs control in vivo at 75 mg/kg in assay [2] (setting [4]) was determined as 34%.

`COC1(c2onc(-c3c(Cl)cc(Cl)cc3Cl)c2C(=O)n2cc(C)c3c(/C=C/C(=O)O)cccc32)CC1` [Example 57, (2E)-3-(1-{[5-(1-Methoxycyclopropyl)-3-(2,4,6-trichlorophenyl)-1,2-oxazol-4-yl]carbonyl}-3-methyl-1H-indol-4-yl)prop-2-enoic acid]: the concentration for half-maximal inhibition (IC50) at IDH1R132C was 98 nM; in assay [1] (setting [3]) it was 26 nM. Also, in assay [2] (setting [4]), the response vs control in vivo at 75 mg/kg was 12%.

For the molecule `Cc1cn(C(=O)c2c(-c3c(Cl)cc(Cl)cc3Cl)noc2C(C)(F)F)c2cccc(/C=C/C(=O)O)c12` [Example 51, (2E)-3-(1-{[5-(1,1-Difluoroethyl)-3-(2,4,6-trichlorophenyl)-1,2-oxazol-4-yl]carbonyl}-3-methyl-1H-indol-4-yl)prop-2-enoic acid], the IC50 on IDH1R132C came out at 115 nM; in assay [1] (HT-1080, read-out: Test Example 3 IC50 (nM)), 83 nM. For the same molecule, in assay [2], the response vs control in vivo at 75 mg/kg is 52%.

For the molecule `Cc1cn(C(=O)c2c(-c3c(F)cc(Cl)cc3Cl)noc2C(C)(C)F)c2cccc(/C=C/C(=O)O)c12` [Example 47, (2E)-3-(1-{[3-(2,4-Dichloro-6-fluorophenyl)-5-(2-fluoropropan-2-yl)-1,2-oxazol-4-yl]carbonyl}-3-methyl-1H-indol-4-yl)prop-2-enoic acid], the figures for the IC50 (at IDH1R132C; in assay [1] (setting [3])) were 98 nM and 62 nM, respectively. Also, in assay [2] (setting [4]), the response vs control in vivo at 75 mg/kg was determined as 17%.

For the molecule `C=CC(=O)N1CCC(c2onc(-c3c(C)cc(Cl)cc3C)c2C(=O)n2cc(C)c3c(/C=C/C(=O)O)cccc32)CC1` [Example 122], the IC50 at IDH1R132C is 94 nM; in assay [1] (setting [3]), 6 nM. Besides, the response vs control in vivo at 75 mg/kg in assay [2] (setting [4]) was 29%.

As to `CC(C)(C)c1onc(-c2c(Cl)cc(Cl)cc2Cl)c1C(=O)n1cc(F)c2c(/C=C/C(=O)O)cccc21` [Example 40, (2E)-3-(1-{[5-(tert-Butyl)-3-(2,4,6-trichlorophenyl)-1,2-oxazol-4-yl]carbonyl}-3-fluoro-1H-indol-4-yl)prop-2-enoic acid], the half-inhibitory concentration (IC50) was 159 nM at IDH1R132C and 57 nM in assay [1] (setting [3]). Also, the response vs control in vivo at 75 mg/kg in assay [2] (setting [4]) came to 18%.

For `C=CC(=O)N1CCN(c2onc(-c3c(Cl)cc(Cl)cc3Cl)c2C(=O)n2ccc3c(/C=C/C(=O)O)cccc32)C[C@H]1C` [Example 148, (2E)-3-[1-({5-[(3R)-4-Acryloyl-3-methylpiperazin-1-yl]3-(2,4,6-trichlorophenyl)-1,2-oxazol-4-yl}carbonyl)-1H-indol-4-yl]prop-2-enoic acid], the IC50 came to 225 nM on IDH1R132C and 114 nM in assay [1] (setting [3]). For the same molecule, the response vs control in vivo at 75 mg/kg in assay [2] (setting [4]) turned out to be 50%.

Regarding `C=CC(=O)N1CCC(c2onc(-c3c(Cl)cc(Cl)cc3Cl)c2C(=O)c2cn(C)c3c(/C=C/C(=O)O)cccc23)CC1` [Example 166, (2E)-3-(3-{[5-(1-Acryloylpiperidin-4-yl)-3-(2,4,6-trichlorophenyl)-1,2-oxazol-4-yl]carbonyl}-1-methyl-1H-indol-7-yl)prop-2-enoic acid], the IC50 at IDH1R132C turned out to be 141 nM; in assay [1] (setting [3]) it was 299 nM. For the same molecule, the response vs control in vivo at 75 mg/kg in assay [2] (setting [4]) came to 81%.

As to `C=CC(=O)N1CCC(c2onc(-c3c(C)cc(C)cc3C)c2C(=O)n2ccc3c(/C=C/C(=O)O)cccc32)CC1` [Example 109], the IC50 on IDH1R132C is 243 nM; in assay [1] (setting [3]) it was 45 nM. In addition, in assay [2] (setting [4]), the response vs control in vivo at 75 mg/kg was determined as 23%.

As to `C=CC(=O)N1CCC(c2onc(-c3c(Cl)cc(Cl)cc3Cl)c2C(=O)n2ccc3c(C4CC4C(=O)O)cccc32)CC1` (stereo not drawn) [Example 105], the values for the 50% inhibitory concentration (IC50) (at IDH1R132C; in assay [1] (setting [3])) were 567 nM and 32 nM, respectively. The response vs control in vivo at 75 mg/kg in assay [2] (setting [4]) was 27%.

For `CC(C)(F)c1onc(-c2c(Cl)cc(Cl)cc2Cl)c1C(=O)n1cc2c3c(cccc31)/C(=C/C(=O)O)CC2` [Example 13, (2E)-[1-{[5-(2-Fluoropropan-2-yl)-3-(2,4,6-trichlorophenyl)-1,2-oxazol-4-yl]carbonyl}-3,4-dihydrobenzop[cd]indol-5(1H)-ylidene]ethanoic acid], the values for the IC50 (at IDH1R132C; in assay [1] (setting [3])) were 148 nM and 51 nM, respectively. Moreover, the response vs control in vivo at 75 mg/kg in assay [2] (setting [4]) was 28%.

On to `C=CC(=O)N1CC2(CC2)N(c2onc(-c3c(F)cccc3Cl)c2C(=O)n2ccc3c(/C=C/C(=O)O)cccc32)C[C@H]1CC` [Example 160, (2E)-3-[1-({5-[(6R)7-Acryloyl-6-ethyl-4,7-diazaspiro[2.5]oct-4-yl]-3-(2-chloro-6-fluorophenyl)-1,2-oxazol-4-yl}carbonyl)-1H-indol-4-yl]prop-2-enoic acid], for which the concentration for half-maximal inhibition (IC50) at IDH1R132C worked out at 81 nM; in assay [1] (setting [3]) it was 106 nM. Further, the response vs control in vivo at 75 mg/kg in assay [2] (setting [4]) was found to be 47%.
